Laboratory results published in patent publication US20080160001A1, “Antihypercholesterolemic Formulation with Less Side-Effects” (PFICKER PHARMACEUTICALS LTD., priority 2005, published 2008).
Blank lines part the entries; values can stand above or below the molecule they belong to.

Columns and labels:
[1] = in vivo; cited from earlier work
[2] = system: patients; conditions: cited from earlier work
[3] = cited from earlier work
[4] = system: patients; conditions: patient with abnormal heart function, 40 mg alone, within 6 months, from 0.70; cited from earlier work
[5] = system: patients (clinical cases); assay: Summary of clinical cases; conditions: patient, simvastatin 20 mg; for blood ammonia: before test 72; for cholesterol in the blood: before test 249; for concentration of cholesterol in the blood: before 249
[6] = Experiment on stability of simvastatin; type: physicochemical; conditions: under pH of 5-7

Molecule: C[N+](C)(C)C[C@H](O)CC(=O)[O-] [L-Carnitine]
amount at which no toxic and side effect is found [1]: 500 mg/kg body weight/day

Molecule: COC1=C(OC)C(=O)C(C/C=C(\C)CC/C=C(\C)CC/C=C(\C)CC/C=C(\C)CC/C=C(\C)CC/C=C(\C)CC/C=C(\C)CC/C=C(\C)CC/C=C(\C)CCC=C(C)C)=C(C)C1=O [coenzyme Q10]
outcome of patients close to death due to heart failure ([2]; 19 patients): becoming better
patients with three-year persistence ([2]; added to traditional therapy for heart diseases, traditional therapy 25%): 75%
amount at which no toxic and side effect is found [1]: 100 mg/kg body weight/day
solubility in an aqueous medium [3]: very low

Molecule: O=C(O)CCCCC1CCSS1 (centres unmarked) [lipoic acid]
amount at which no toxic and side effect is found [1]: 300 mg/day

Molecule: CC[C@H](C)C(=O)O[C@H]1C[C@@H](C)C=C2C=C[C@H](C)[C@H](CC[C@@H]3C[C@@H](O)CC(=O)O3)[C@H]21 [lovastatin]
ejection fraction of heart [4]: 0.54

blood ammonia ([5]; 5 weeks): 84 µg/L
blood ammonia ([5]; 10 weeks): 69 µg/L
blood ammonia ([5]; 15 weeks): 77 µg/L
blood ammonia ([5]; 20 weeks): 108 µg/L
blood ammonia ([5]; 25 weeks): 89 µg/L
blood ammonia ([5]; 30 weeks): 93 µg/L
blood ammonia ([5]; 35 weeks): 162 µg/L
concentration of blood ammonia ([5]; after 6 months, before 72): 162 ng/mL
stability of simvastatin solid [6]: good stability
Molecule: CCC(C)(C)C(=O)O[C@H]1C[C@@H](C)C=C2C=C[C@H](C)[C@H](CC[C@@H]3C[C@@H](O)CC(=O)O3)[C@H]21 [simvastatin]
ejection fraction ([5]; 5 weeks, before test 0.59): 0.62
cholesterol in the blood ([5]; 5 weeks): 202 mg/L
ejection fraction ([5]; 10 weeks, before test 0.59): 0.60
cholesterol in the blood ([5]; 10 weeks): 198 mg/L
ejection fraction ([5]; 15 weeks, before test 0.59): 0.63
cholesterol in the blood ([5]; 15 weeks): 194 mg/L
ejection fraction ([5]; 20 weeks, before test 0.59): 0.58
cholesterol in the blood ([5]; 20 weeks): 197 mg/L
ejection fraction ([5]; 25 weeks, before test 0.59): 0.62
cholesterol in the blood ([5]; 25 weeks): 192 mg/L
ejection fraction ([5]; 30 weeks, before test 0.59): 0.61
cholesterol in the blood ([5]; 30 weeks): 194 mg/L
ejection fraction ([5]; 35 weeks, before test 0.59): 0.61
cholesterol in the blood ([5]; 35 weeks): 189 mg/L
ejection fraction ([5]; after 6 months, before 0.59): 0.61
concentration of cholesterol in the blood ([5]; after 6 months): 189 mg/L
concentration of cholesterol in the blood ([5]; after one month): 202 mg/L

Molecule: Vitamin E
amount at which no toxic and side effect is found [1]: 500 mg/day

Molecule: silymarin
amount at which no toxic and side effect is found [1]: 200 mg/kg body weight/day
